US11098083B2, “Peptide that regulates fat metabolism and method for regulating fat metabolism” (SHENZHEN INSTITUTES OF ADVANCED TECHNOLOGY, priority 2017, dated 2021)
Ends that are not written are not given here.

What was measured:
DIO-NAFLD mice = assay: i.p. injection of ISAP1 in DIO-NAFLD mice: liver functions and blood lipids; assay type: in vivo, C57BL/6 mice; settings: daily i.p. 6 weeks, even at 2 pmol/g, compared with HFD control group, FIG. 4
Excerpt: S123: the effect of i.p. injection of ISAP1 on liver functions and blood lipids in mice may be studied.
In S121, before sacrificing the mice, blood of each mouse may be collected from a tail vein and detected for a level of alanine aminotransferases (ALT), a level of alkaline phosphatases (ALP), a level of aspartate aminotransferases (AST), a serum level of cholesterols, a level of low-density lipoprotein (LDL), and a level of high-density lipoprotein (HDL) using a Roche […] (model cobas 8000) as per manufacturer's instructions.

human GPRC6A (hGPRC6A) = target: T1, human GPRC6A (hGPRC6A) (Homo sapiens, UniProt Q5T6X5); assay: fluorescent binding of OCN peptides to cell membranes of Hela cells with hGPRC6A overexpressed; settings: Hela cells with hGPRC6A overexpressed, fluorescent detection, FIG. 6B
T1 construct: expressed in transfected cells; host or cells: Hela cells (transfected with Lipofectamine 2000)
T1 sequence (Q5T6X5 19-926): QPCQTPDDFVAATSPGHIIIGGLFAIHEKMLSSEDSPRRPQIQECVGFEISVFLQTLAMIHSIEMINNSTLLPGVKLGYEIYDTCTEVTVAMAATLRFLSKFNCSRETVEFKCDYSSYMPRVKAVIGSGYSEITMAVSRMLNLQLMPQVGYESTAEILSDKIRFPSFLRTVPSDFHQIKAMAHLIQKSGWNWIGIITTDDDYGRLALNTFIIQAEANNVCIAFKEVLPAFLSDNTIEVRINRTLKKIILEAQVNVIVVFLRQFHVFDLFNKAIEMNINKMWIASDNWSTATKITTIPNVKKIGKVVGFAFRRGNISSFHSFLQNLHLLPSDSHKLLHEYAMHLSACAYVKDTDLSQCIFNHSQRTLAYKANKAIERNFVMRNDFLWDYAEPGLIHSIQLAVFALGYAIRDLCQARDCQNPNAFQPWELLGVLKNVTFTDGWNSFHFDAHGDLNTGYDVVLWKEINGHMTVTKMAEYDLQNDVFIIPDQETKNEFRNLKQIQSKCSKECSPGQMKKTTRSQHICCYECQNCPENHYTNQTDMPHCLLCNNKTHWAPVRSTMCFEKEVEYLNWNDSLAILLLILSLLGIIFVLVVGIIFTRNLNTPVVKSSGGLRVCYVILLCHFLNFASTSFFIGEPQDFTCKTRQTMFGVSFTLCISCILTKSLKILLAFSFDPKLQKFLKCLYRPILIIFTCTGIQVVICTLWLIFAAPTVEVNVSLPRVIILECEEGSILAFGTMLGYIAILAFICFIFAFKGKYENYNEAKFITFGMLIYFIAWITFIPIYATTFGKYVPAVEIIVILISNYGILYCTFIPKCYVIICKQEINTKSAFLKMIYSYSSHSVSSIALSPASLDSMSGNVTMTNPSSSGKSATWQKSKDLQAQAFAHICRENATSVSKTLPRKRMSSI
Description: S131: overexpression of hGPRC6A in Hela cells may be established.
1) Cell plating: A Hela cell suspension may be plated at a density of 1.6×10^5 cells/mL into a 6-well tray with 2 mL of DMEM per well, incubating at 37° C. and 5% CO2 for 24 hours.
2) A vector carrying hGPRC6A (pReceiver-M61) may be transfected into the Hela cells for overexpression, using Lipofectamine 2000 (Invitrogen) as per manufacturer's instructions, and media containing the vector may be replaced by normal media 4 hours later.
3) After the transfection, the cells may be cultured in the normal media for another 48 hours, and the normal media may be discarded. The cells attached on a bottom of each well may be washed twice with sterile PBS, and 300 μl of TRIzol solution may be added into each well. Cellular RNAs may be extracted as per RNAiso Plus (TaKaRa) instructions, and after a DNase treatment, may be reversely transcribed into cDNAs using DNAEngine and a SuperScript™ (Invitrogen, Canada) kit. The cDNAs may be used as a template, and real-time monitoring and analysis may be performed to fluorescent PCR products at various time points using a SYBR Green (Light Cycler Roche, Germany) method to detect expression levels of the hGPRC6A. […] The selected cell strain may then be detected for its gene expression by qPCR. […]

HFD mice = assay: gavage of peptides in HFD mice: triglyceride in feces, week 7; assay type: in vivo, C57BL/6 mice; settings: gavage 2 pmol/g, feces of week 7, compared with HFD control group, FIG. 7B
Description: Feces of each mouse may be collected in week 7, baked at 60° C. for 3 days to ensure complete dryness. Then, 1 mg of the feces may be collected and soaked in 1 ml of a mixed solution consisting of chloroform and methanol in a ratio of 2:1. The soaked feces may then be disrupted with a tissue homogenizer and centrifuged to obtain a supernatant. The supernatant may be detected for triglyceride by the Roche blood biochemical analyzer. Experimental results are shown in FIG. 7B. **: P<0.01, ***: P<0.001.
(§1) Feces of the mice may be collected in the 7th week of the experiment and baked at 60° C. for 3 days to ensure complete dryness. Then, 1 mg of the feces may be weighed and soaked in 1 ml of a mixed solution containing chloroform and methanol in a ratio of 2:1. The feces with the mixed solution may be disrupted by a tissue homogenizer and centrifuged to obtain a supernatant. The supernatant may be detected for triglyceride by the Roche blood biochemical analyzer.
as §1, with “2:1.The” for “2:1. The”
as §1, with “each mouse” for “the mice”, “experiment,” for “experiment”, “dryness.” for “dryness. Then,”, “in” for “with”

affinity of binding to the hGPRC6A compared with OCN (human GPRC6A (hGPRC6A)): consistent with that of the OCN
Sequence: YLGASVPSPDPLEPT [ISAP1]
level of alanine aminotransferases (ALT) in blood (DIO-NAFLD mice): effective in reducing
level of alkaline phosphatases (ALP) in blood (DIO-NAFLD mice): effective in reducing
level of aspartate aminotransferases (AST) in blood (DIO-NAFLD mice): effective in reducing
level of low-density lipoprotein (LDL) (DIO-NAFLD mice): effective in reducing
serum level of cholesterols (DIO-NAFLD mice): effective in reducing
content (level) of triglyceride in the feces (HFD mice): significantly increased
